# PubChem BioAssay AID1963835 (Molecular Pharmacology Branch, DTP, NCI, 2024)
# pIC50: −log10 of the molar value.
# Test system: 699152-130-R-J1-PDC complex spheroid viability
# Test: Anticancer human tumor 699152-130-R-J1-PDC patient-derived pancreatic carcinoma cell line growth inhibition [POLQ]
# Settings: for pIC50: curve of first compound; for viability, T/C: stronger effect = lower value
# How it was run: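 PDC + HUVEC + MSC complex spheroids; POLQ inhibitors ± partner drugs; top conc. at/near clinical Cmax, else 10 microM (SN-38 1 microM), half-log dilutions; 37 degrees C, 5% CO2.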
# [1] = second compound 0.0316 µM, first compound 0.0316 µM
# [2] = second compound 0.0316 µM, first compound 0.1 µM
# [3] = second compound 0.1 µM, first compound 0.0316 µM
# [4] = second compound 0.1 µM, first compound 0.1 µM
# [5] = second compound 0.316 µM, first compound 0.0316 µM
# [6] = second compound 0.316 µM, first compound 0.1 µM
# [7] = second compound 1 µM, first compound 0.0316 µM
# [8] = second compound 1 µM, first compound 0.1 µM
# [9] = second compound 3.16 µM, first compound 0.0316 µM
# [10] = second compound 3.16 µM, first compound 0.1 µM
# [11] = second compound 10 µM, first compound 0.0316 µM
# [12] = second compound 10 µM, first compound 0.1 µM
# [13] = second compound 0.0316 µM, first compound 0.316 µM
# [14] = second compound 0.0316 µM, first compound 1 µM
# [15] = second compound 0.0316 µM, first compound 3.16 µM
# [16] = second compound 0.0316 µM, first compound 10 µM
# [17] = second compound 0.1 µM, first compound 0.316 µM
# [18] = second compound 0.1 µM, first compound 1 µM
# [19] = second compound 0.1 µM, first compound 3.16 µM
# [20] = second compound 0.1 µM, first compound 10 µM
# [21] = second compound 0.316 µM, first compound 0.316 µM
# [22] = second compound 0.316 µM, first compound 1 µM
# [23] = second compound 0.316 µM, first compound 3.16 µM
# [24] = second compound 0.316 µM, first compound 10 µM
# [25] = second compound 1 µM, first compound 0.316 µM
# [26] = second compound 1 µM, first compound 1 µM
# [27] = second compound 1 µM, first compound 3.16 µM
# [28] = second compound 1 µM, first compound 10 µM
# [29] = second compound 3.16 µM, first compound 0.316 µM
# [30] = second compound 3.16 µM, first compound 1 µM
# [31] = second compound 3.16 µM, first compound 3.16 µM
# [32] = second compound 3.16 µM, first compound 10 µM
# [33] = second compound 10 µM, first compound 0.316 µM
# [34] = second compound 10 µM, first compound 1 µM
# [35] = second compound 10 µM, first compound 3.16 µM
# [36] = second compound 10 µM, first compound 10 µM
# 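Further: spheroids exposed to agents for 7 days before viability reading.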
# 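Wherever viability, T/C is given: percent of DMSO vehicle control viability so 100% = vehicle and 0% = no viable signal.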
compound,measurement,setting,value
CC[C@@]1(O)C(=O)OCc2c1cc1n(c2=O)Cc2cc3c(CN(C)C)c(O)ccc3nc2-1 + Cc1cccc(N(C)C(=O)C2C(O)CCN2c2nc(C)cc(C(F)(F)F)c2C#N)c1,pIC50,second compound 0.0316 µM,< 7.00
same,pIC50,second compound 0.1 µM,< 7.00
same,pIC50,second compound 0.316 µM,< 7.00
same,pIC50,second compound 1 µM,< 7.00
same,pIC50,second compound 3.16 µM,< 7.00
same,pIC50,second compound 10 µM,< 7.00
same,"viability, T/C","second compound 0.0316 µM, first compound 0.000316 µM",104%
same,"viability, T/C","second compound 0.0316 µM, first compound 0.001 µM",118%
same,"viability, T/C","second compound 0.0316 µM, first compound 0.00316 µM",95.4%
same,"viability, T/C","second compound 0.0316 µM, first compound 0.01 µM",90.2%
same,"viability, T/C",[1],81.3%
same,"viability, T/C",[2],67.3%
same,"viability, T/C","second compound 0.1 µM, first compound 0.000316 µM",103%
same,"viability, T/C","second compound 0.1 µM, first compound 0.001 µM",103%
same,"viability, T/C","second compound 0.1 µM, first compound 0.00316 µM",91%
same,"viability, T/C","second compound 0.1 µM, first compound 0.01 µM",112%
same,"viability, T/C",[3],82.5%
same,"viability, T/C",[4],58.2%
same,"viability, T/C","second compound 0.316 µM, first compound 0.000316 µM",101%
same,"viability, T/C","second compound 0.316 µM, first compound 0.001 µM",99.2%
same,"viability, T/C","second compound 0.316 µM, first compound 0.00316 µM",116%
same,"viability, T/C","second compound 0.316 µM, first compound 0.01 µM",93.6%
same,"viability, T/C",[5],76.4%
same,"viability, T/C",[6],63.2%
same,"viability, T/C","second compound 1 µM, first compound 0.000316 µM",111%
same,"viability, T/C","second compound 1 µM, first compound 0.001 µM",97.5%
same,"viability, T/C","second compound 1 µM, first compound 0.00316 µM",111%
same,"viability, T/C","second compound 1 µM, first compound 0.01 µM",99.9%
same,"viability, T/C",[7],81.2%
same,"viability, T/C",[8],58.7%
same,"viability, T/C","second compound 3.16 µM, first compound 0.000316 µM",99.7%
same,"viability, T/C","second compound 3.16 µM, first compound 0.001 µM",106%
same,"viability, T/C","second compound 3.16 µM, first compound 0.00316 µM",112%
same,"viability, T/C","second compound 3.16 µM, first compound 0.01 µM",97.5%
same,"viability, T/C",[9],80.5%
same,"viability, T/C",[10],64.1%
same,"viability, T/C","second compound 10 µM, first compound 0.000316 µM",102%
same,"viability, T/C","second compound 10 µM, first compound 0.001 µM",105%
same,"viability, T/C","second compound 10 µM, first compound 0.00316 µM",95.6%
same,"viability, T/C","second compound 10 µM, first compound 0.01 µM",91.8%
same,"viability, T/C",[11],85.5%
same,"viability, T/C",[12],68.8%
O=C(c1cc(Cc2n[nH]c(=O)c3ccccc23)ccc1F)N1CCN(C(=O)C2CC2)CC1 + COC1C(OC(N)=O)C(O)C(Oc2ccc3c(O)c(NC(=O)c4ccc(O)c(CC=C(C)C)c4)c(=O)oc3c2C)OC1(C)C,pIC50,second compound 0.0316 µM,> 7.50
same,pIC50,second compound 0.1 µM,> 7.50
same,pIC50,second compound 0.316 µM,> 7.50
same,pIC50,second compound 1 µM,> 7.50
same,pIC50,second compound 3.16 µM,> 7.50
same,pIC50,second compound 10 µM,> 7.50
same,"viability, T/C",[1],38.8%
same,"viability, T/C",[2],37.8%
same,"viability, T/C",[13],35.3%
same,"viability, T/C",[14],40.3%
same,"viability, T/C",[15],35.7%
same,"viability, T/C",[16],34%
same,"viability, T/C",[3],42.7%
same,"viability, T/C",[4],37.2%
same,"viability, T/C",[17],38.5%
same,"viability, T/C",[18],43.9%
same,"viability, T/C",[19],37.2%
same,"viability, T/C",[20],29.8%
same,"viability, T/C",[5],40%
same,"viability, T/C",[6],41.5%
same,"viability, T/C",[21],40.6%
same,"viability, T/C",[22],36.5%
same,"viability, T/C",[23],33.6%
same,"viability, T/C",[24],32.3%
same,"viability, T/C",[7],41.6%
same,"viability, T/C",[8],39.7%
same,"viability, T/C",[25],36.9%
same,"viability, T/C",[26],37.4%
same,"viability, T/C",[27],39.6%
same,"viability, T/C",[28],35.1%
same,"viability, T/C",[9],39%
same,"viability, T/C",[10],42.9%
same,"viability, T/C",[29],41.3%
same,"viability, T/C",[30],40.7%
same,"viability, T/C",[31],36.8%
same,"viability, T/C",[32],36.9%
same,"viability, T/C",[11],38.3%
same,"viability, T/C",[12],36.2%
same,"viability, T/C",[33],36.2%
same,"viability, T/C",[34],40.2%
same,"viability, T/C",[35],42.9%
same,"viability, T/C",[36],31.1%
O=c1[nH]cc(F)c(=O)[nH]1 + COC1C(OC(N)=O)C(O)C(Oc2ccc3c(O)c(NC(=O)c4ccc(O)c(CC=C(C)C)c4)c(=O)oc3c2C)OC1(C)C,pIC50,second compound 0.0316 µM,< 5.00
same,pIC50,second compound 0.1 µM,< 5.00
same,pIC50,second compound 0.316 µM,< 5.00
same,pIC50,second compound 1 µM,< 5.00
same,pIC50,second compound 3.16 µM,< 5.00
same,pIC50,second compound 10 µM,< 5.00
same,"viability, T/C",[1],101%
same,"viability, T/C",[2],92.8%
same,"viability, T/C",[13],108%
same,"viability, T/C",[14],108%
same,"viability, T/C",[15],91.3%
same,"viability, T/C",[16],75.4%
same,"viability, T/C",[3],109%
same,"viability, T/C",[4],113%
same,"viability, T/C",[17],88.5%
same,"viability, T/C",[18],97.2%
same,"viability, T/C",[19],93.6%
same,"viability, T/C",[20],68.7%
same,"viability, T/C",[5],92.6%
same,"viability, T/C",[6],99.6%
same,"viability, T/C",[21],99.8%
same,"viability, T/C",[22],95.4%
same,"viability, T/C",[23],86%
same,"viability, T/C",[24],65.9%
same,"viability, T/C",[7],104%
same,"viability, T/C",[8],101%
same,"viability, T/C",[25],91%
same,"viability, T/C",[26],105%
same,"viability, T/C",[27],98.5%
same,"viability, T/C",[28],76.8%
same,"viability, T/C",[9],102%
same,"viability, T/C",[10],93.2%
same,"viability, T/C",[29],91.2%
same,"viability, T/C",[30],88.4%
same,"viability, T/C",[31],92.5%
same,"viability, T/C",[32],72.8%
same,"viability, T/C",[11],106%
same,"viability, T/C",[12],108%
same,"viability, T/C",[33],101%
same,"viability, T/C",[34],95.9%
same,"viability, T/C",[35],88.2%
same,"viability, T/C",[36],73%
